Experimental findings from US10875875B2, “Propionic acid derivatives and methods of use thereof” (Aviara Pharmaceuticals, Inc., priority 2017, dated 2020) are described below.

This assay has as its target α4β1 (Homo sapiens, UniProt P05556+P13612). Kind of assay: α4β1 integrin inhibition, IC50. The format is binding. As to conditions: read-out: α4β1 IC50.

One may read the IC50 as the concentration that gives 50% inhibition.

α4β1, sequence (P13612 34-1032): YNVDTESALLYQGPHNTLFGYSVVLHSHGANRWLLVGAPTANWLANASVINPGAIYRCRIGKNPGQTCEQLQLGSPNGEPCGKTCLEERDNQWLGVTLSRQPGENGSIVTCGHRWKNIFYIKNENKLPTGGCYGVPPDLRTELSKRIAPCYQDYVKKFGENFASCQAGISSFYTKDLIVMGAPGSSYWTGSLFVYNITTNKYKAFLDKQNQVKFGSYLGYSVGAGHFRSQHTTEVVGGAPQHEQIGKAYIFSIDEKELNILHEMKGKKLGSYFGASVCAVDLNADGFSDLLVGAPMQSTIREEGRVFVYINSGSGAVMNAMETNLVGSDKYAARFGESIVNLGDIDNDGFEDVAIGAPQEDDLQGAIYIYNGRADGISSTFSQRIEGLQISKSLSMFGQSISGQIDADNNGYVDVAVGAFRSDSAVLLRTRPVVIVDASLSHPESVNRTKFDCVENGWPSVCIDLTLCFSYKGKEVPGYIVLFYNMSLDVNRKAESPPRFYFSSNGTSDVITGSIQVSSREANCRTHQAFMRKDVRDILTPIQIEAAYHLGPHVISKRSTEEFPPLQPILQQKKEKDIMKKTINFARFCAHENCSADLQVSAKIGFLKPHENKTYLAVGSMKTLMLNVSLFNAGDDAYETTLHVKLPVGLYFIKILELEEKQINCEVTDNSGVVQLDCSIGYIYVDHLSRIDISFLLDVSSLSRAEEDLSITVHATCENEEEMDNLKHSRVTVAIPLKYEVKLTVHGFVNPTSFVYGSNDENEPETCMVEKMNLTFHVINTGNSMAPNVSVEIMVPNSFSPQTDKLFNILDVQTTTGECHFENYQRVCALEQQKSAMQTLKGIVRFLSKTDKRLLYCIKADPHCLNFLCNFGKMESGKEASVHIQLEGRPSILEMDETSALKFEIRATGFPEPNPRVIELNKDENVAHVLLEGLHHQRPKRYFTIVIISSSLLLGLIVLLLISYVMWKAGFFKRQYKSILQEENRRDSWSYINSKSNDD
α4β1, sequence (P05556 21-798): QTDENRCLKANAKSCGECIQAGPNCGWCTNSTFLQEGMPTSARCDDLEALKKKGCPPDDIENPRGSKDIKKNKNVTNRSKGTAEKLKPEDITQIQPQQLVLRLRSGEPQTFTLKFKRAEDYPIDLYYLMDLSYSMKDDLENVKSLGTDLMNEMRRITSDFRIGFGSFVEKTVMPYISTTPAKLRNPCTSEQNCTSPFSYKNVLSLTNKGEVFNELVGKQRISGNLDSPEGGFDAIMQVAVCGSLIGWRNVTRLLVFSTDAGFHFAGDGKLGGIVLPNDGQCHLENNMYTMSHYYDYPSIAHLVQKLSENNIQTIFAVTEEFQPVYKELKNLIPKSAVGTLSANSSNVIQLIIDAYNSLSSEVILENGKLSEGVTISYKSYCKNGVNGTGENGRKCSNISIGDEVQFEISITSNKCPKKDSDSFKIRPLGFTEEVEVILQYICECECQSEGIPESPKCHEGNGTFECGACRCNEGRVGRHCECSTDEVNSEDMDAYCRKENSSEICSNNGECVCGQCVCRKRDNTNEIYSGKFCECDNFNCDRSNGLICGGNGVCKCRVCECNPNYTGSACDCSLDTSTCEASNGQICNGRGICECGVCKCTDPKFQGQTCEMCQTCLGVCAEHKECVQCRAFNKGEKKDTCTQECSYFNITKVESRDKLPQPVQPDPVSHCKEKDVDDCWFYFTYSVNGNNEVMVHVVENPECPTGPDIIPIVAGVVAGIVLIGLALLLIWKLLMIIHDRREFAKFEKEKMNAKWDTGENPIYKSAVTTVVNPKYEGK

On to `Cc1cn(C)c(=O)c(NC(=O)NC(CC(=O)O)c2cccc(-c3ccccc3Cl)c2)c1O` (centres unmarked) [1-473, sodium 3-(2′-chlorobiphenyl-3-yl)-3-(3-(1,5-dimethyl-4-oxido-2-oxo-1,2-dihydropyridin-3-yl)ureido)propanoate], for which the IC50 was < 20 nM.

With `Cc1cn(C)c(=O)c(NC(=O)N[C@@H](CC(=O)O)c2cccc(-c3ccccc3C(F)(F)F)c2)c1O` [1-474, sodium (S)-3-(3-(1,5-dimethyl-4-oxido-2-oxo-1,2-dihydropyridin-3-yl)ureido)-3-(2′-(trifluoromethyl)biphenyl-3-yl)propanoate], the IC50 was < 200 nM. On to `COc1cc([C@H](CC(=O)O)NC(=O)Nc2c(O)c(C)cn(C)c2=O)cc(-c2ccccc2)c1OC` [1-475, sodium (S)-3-(5,6-dimethoxybiphenyl-3-yl)-3-(3-(1,5-dimethyl-4-oxido-2-oxo-1,2-dihydropyridin-3-yl)ureido)propanoate], for which the IC50 is < 200 nM.

Consider `COc1ccc(-c2cccc([C@H](CC(=O)O)NC(=O)Nc3c(O)c(C)cn(C)c3=O)c2)cn1` [1-476, sodium (S)-3-(3-(1,5-dimethyl-4-oxido-2-oxo-1,2-dihydropyridin-3-yl)ureido)-3-(3-(6-methoxypyridin-3-yl)phenyl)propanoate], for which the IC50 was < 20 nM.

Regarding `COc1ccc(OC)c(-c2cccc([C@H](CC(=O)O)NC(=O)Nc3c(O)c(C)cn(C)c3=O)c2)c1` [1-477, sodium (S)-3-(2′,5′-dimethoxybiphenyl-3-yl)-3-(3-(1,5-dimethyl-4-oxido-2-oxo-1,2-dihydropyridin-3-yl)ureido)propanoate], the concentration for half-maximal inhibition (IC50) is < 200 nM. Consider `Cc1cn(C)c(=O)c(NC(=O)NC(CC(=O)O)c2cccc(-c3cncnc3)c2)c1O` (centres unmarked) [1-478, sodium 3-(3-(1,5-dimethyl-4-oxido-2-oxo-1,2-dihydropyridin-3-yl)ureido)-3-(3-(pyrimidin-5-yl)phenyl)propanoate], for which the IC50 was < 200 nM.

Regarding `COc1cccc(OC)c1-c1cccc([C@H](CC(=O)O)NC(=O)Nc2c(O)c(C)cn(C)c2=O)c1` [1-479, sodium (S)-3-(2′,6′-dimethoxybiphenyl-3-yl)-3-(3-(1,5-dimethyl-4-oxido-2-oxo-1,2-dihydropyridin-3-yl)ureido)propanoate], the 50% inhibitory concentration (IC50) was < 200 nM. Take `CCn1cc(C)c(O)c(NC(=O)NC(CC(=O)O)c2cccc(-c3ccc(Cl)c(Cl)c3)c2)c1=O` (centres unmarked) [1-480, sodium 3-(3′,4′-dichlorobiphenyl-3-yl)-3-(3-(1-ethyl-5-methyl-4-oxido-2-oxo-1,2-dihydropyridin-3-yl)ureido)propanoate]: the 50% inhibitory concentration (IC50) was < 200 nM. On to `Cc1cn(C)c(=O)c(NC(=O)NC(CC(=O)O)c2cccc(-c3ccc(Cl)c(Cl)c3)c2)c1O` (centres unmarked) [1-481, sodium 3-(3′,4′-dichlorobiphenyl-3-yl)-3-(3-(1,5-dimethyl-4-oxido-2-oxo-1,2-dihydropyridin-3-yl)ureido)propanoate], for which the IC50 is < 200 nM. The result for `Cc1cn(C)c(=O)c(NC(=O)N[C@@H](CC(=O)O)c2ccc(-c3ccccc3)o2)c1O` [1-482, sodium (S)-3-(3-(1,5-dimethyl-4-oxido-2-oxo-1,2-dihydropyridin-3-yl)ureido)-3-(5-phenylfuran-2-yl)propanoate] reads < 200 nM; that for `Cc1cn(C)c(=O)c(NC(=O)N[C@@H](CC(=O)O)c2cccc(-n3c(C)ccc3C)c2)c1O` [1-483, sodium (S)-3-(3-(2,5-dimethyl-1H-pyrrol-1-yl)phenyl)-3-(3-(1,5-dimethyl-4-oxido-2-oxo-1,2-dihydropyridin-3-yl)ureido)propanoate], < 20 nM; that for `Cc1cn(C)c(=O)c(NC(=O)NC(CC(=O)O)c2cccc(-c3ccc(F)c(Cl)c3)c2)c1O` (centres unmarked) [1-484, sodium 3-(3′-chloro-4′-fluorobiphenyl-3-yl)-3-(3-(1,5-dimethyl-4-oxido-2-oxo-1,2-dihydropyridin-3-yl)ureido)propanoate], < 200 nM.

Consider `Cc1cn(C)c(=O)c(NC(=O)NC(CC(=O)O)c2cccc(-c3cccc(Cl)c3Cl)c2)c1O` (centres unmarked) [1-485, sodium 3-(2′,3′-dichlorobiphenyl-3-yl)-3-(3-(1,5-dimethyl-4-oxido-2-oxo-1,2-dihydropyridin-3-yl)ureido)propanoate], for which the 50% inhibitory concentration (IC50) is < 200 nM.

With `Cc1cn(C)c(=O)c(NC(=O)NC(CC(=O)O)c2cccc(-c3cc(Cl)cc(Cl)c3)c2)c1O` (centres unmarked) [1-486, sodium 3-(3′,5′-dichlorobiphenyl-3-yl)-3-(3-(1,5-dimethyl-4-oxido-2-oxo-1,2-dihydropyridin-3-yl)ureido)propanoate], the IC50 was < 200 nM. The result for `COc1cccc(-c2cccc([C@H](CC(=O)O)NC(=O)Nc3c(O)c(C)cn(C)c3=O)c2)c1C` [1-489, sodium (S)-3-(3-(1,5-dimethyl-4-oxido-2-oxo-1,2-dihydropyridin-3-yl)ureido)-3-(3′-methoxy-2′-methylbiphenyl-3-yl)propanoate] reads < 200 nM; that for `COc1ccc(C)c(-c2cccc([C@H](CC(=O)O)NC(=O)Nc3c(O)c(C)cn(C)c3=O)c2)c1` [1-490, sodium (S)-3-(3-(1,5-dimethyl-4-oxido-2-oxo-1,2-dihydropyridin-3-yl)ureido)-3-(5′-methoxy-2′-methylbiphenyl-3-yl)propanoate], < 200 nM; that for `Cc1cn(C)c(=O)c(NC(=O)NC(CC(=O)O)c2ccc(OCC(F)(F)F)c(-c3ccccc3)c2)c1O` (centres unmarked) [1-491, sodium 3-(3-(1,5-dimethyl-4-oxido-2-oxo-1,2-dihydropyridin-3-yl)ureido)-3-(6-(2,2,2-trifluoroethoxy)biphenyl-3-yl)propanoate], < 200 nM. For the compound `CCc1ccccc1-c1cccc([C@H](CC(=O)O)NC(=O)Nc2c(O)c(C)cn(C)c2=O)c1` [1-492, sodium (S)-3-(3-(1,5-dimethyl-4-oxido-2-oxo-1,2-dihydropyridin-3-yl)ureido)-3-(2′-ethylbiphenyl-3-yl)propanoate], the IC50 is < 20 nM. As to `Cc1cn(C)c(=O)c(NC(=O)N[C@@H](CC(=O)O)c2cc(-c3ccccc3)ccc2F)c1O` [1-493, sodium (S)-3-(3-(1,5-dimethyl-4-oxido-2-oxo-1,2-dihydropyridin-3-yl)ureido)-3-(4-fluorobiphenyl-3-yl)propanoate], the half-inhibitory concentration (IC50) was < 200 nM. Turning to `O=C(O)C[C@H](NC(=O)Nc1c(O)cc[nH]c1=O)c1cccc(-c2ccc(F)cc2F)c1` [1-494, sodium (S)-3-(2′,4′-difluorobiphenyl-3-yl)-3-(3-(4-oxido-2-oxo-1,2-dihydropyridin-3-yl)ureido)propanoate], the IC50 is < 20 nM. Consider `Cc1ccc(-c2cccc([C@H](CC(=O)O)NC(=O)Nc3c(O)c(C)cn(C)c3=O)c2)cc1C` [1-495, sodium (S)-3-(3-(1,5-dimethyl-4-oxido-2-oxo-1,2-dihydropyridin-3-yl)ureido)-3-(3′,4′-dimethylbiphenyl-3-yl)propanoate], for which the IC50 was < 200 nM.

In the case of `Cc1cn(C)c(=O)c(NC(=O)N[C@@H](CC(=O)O)c2cccc(-c3cccc(F)c3F)c2)c1O` [1-496, sodium (S)-3-(2′,3′-difluorobiphenyl-3-yl)-3-(3-(1,5-dimethyl-4-oxido-2-oxo-1,2-dihydropyridin-3-yl)ureido)propanoate], the concentration for half-maximal inhibition (IC50) was < 200 nM. As for `Cc1cc(-c2cccc([C@H](CC(=O)O)NC(=O)Nc3c(O)c(C)cn(C)c3=O)c2)ccc1F` [1-497, sodium (S)-3-(3-(1,5-dimethyl-4-oxido-2-oxo-1,2-dihydropyridin-3-yl)ureido)-3-(4′-fluoro-3′-methylbiphenyl-3-yl)propanoate], the 50% inhibitory concentration (IC50) was < 200 nM. On to `Cc1cn(C)c(=O)c(NC(=O)N[C@@H](CC(=O)O)c2cccn2-c2ccccc2)c1O` [1-498, sodium (S)-3-(3-(1,5-dimethyl-4-oxido-2-oxo-1,2-dihydropyridin-3-yl)ureido)-3-(1-phenyl-1H-pyrrol-2-yl)propanoate], for which the IC50 is > 200 nM. As to `Cc1cn(C)c(=O)c(NC(=O)N[C@@H](CC(=O)O)c2cccc(-c3cccc(Cl)c3)c2)c1O` [1-499, sodium (S)-3-(3′-chlorobiphenyl-3-yl)-3-(3-(1,5-dimethyl-4-oxido-2-oxo-1,2-dihydropyridin-3-yl)ureido)propanoate], the IC50 is < 20 nM. As for `Cc1cn(C)c(=O)c(NC(=O)N[C@@H](CC(=O)O)c2cccc(-c3ccccc3)c2C)c1O` [1-500, sodium (S)-3-(3-(1,5-dimethyl-4-oxido-2-oxo-1,2-dihydropyridin-3-yl)ureido)-3-(2-methylbiphenyl-3-yl)propanoate], the IC50 was > 200 nM. In the case of `COc1cccc(-c2cccc([C@H](CC(=O)O)NC(=O)Nc3c(O)ccn(C)c3=O)c2)c1` [1-501, sodium (S)-3-(3′-methoxybiphenyl-3-yl)-3-(3-(1-methyl-4-oxido-2-oxo-1,2-dihydropyridin-3-yl)ureido)propanoate], the IC50 was < 20 nM. With `Cc1cn(C)c(=O)c(NC(=O)NC(CC(=O)O)c2cccc(-c3cc(Cl)c(F)cc3F)c2)c1O` (centres unmarked) [1-503, sodium 3-(5′-chloro-2′,4′-difluorobiphenyl-3-yl)-3-(3-(1,5-dimethyl-4-oxido-2-oxo-1,2-dihydropyridin-3-yl)ureido)propanoate], the IC50 is < 200 nM. For `COc1cccc(-c2cccc([C@H](CC(=O)O)NC(=O)Nc3c(O)c(C)cn(C)c3=O)c2)c1OC` [1-504, sodium (S)-3-(2′,3′-dimethoxybiphenyl-3-yl)-3-(3-(1,5-dimethyl-4-oxido-2-oxo-1,2-dihydropyridin-3-yl)ureido)propanoate], the IC50 was < 20 nM.

With `Cn1ccc(O)c(NC(=O)N[C@@H](CC(=O)O)c2cccc(-c3ccccc3)c2)c1=O` [1-505, sodium (S)-3-(biphenyl-3-yl)-3-(3-(1-methyl-4-oxido-2-oxo-1,2-dihydropyridin-3-yl)ureido)propanoate], the half-maximal inhibitory concentration (IC50) was < 20 nM. Consider `Cn1ccc(O)c(NC(=O)N[C@@H](CC(=O)O)c2cccc(-c3cccc(Cl)c3)c2)c1=O` [1-506, sodium (S)-3-(3′-chlorobiphenyl-3-yl)-3-(3-(1-methyl-4-oxido-2-oxo-1,2-dihydropyridin-3-yl)ureido)propanoate], for which the IC50 was < 20 nM. The result for `Cn1ccc(O)c(NC(=O)N[C@@H](CC(=O)O)c2cccc(-n3cccc3)c2)c1=O` [1-507, sodium (S)-3-(3-(1H-pyrrol-1-yl)phenyl)-3-(3-(1-methyl-4-oxido-2-oxo-1,2-dihydropyridin-3-yl)ureido)propanoate] reads < 20 nM.
